Test results from patent publication US5523314A, “Compounds useful as hypoglycemic agents and for treating Alzheimer's disease” (priority 1994, dated 1996).
Counter-ions that a name gives are not always drawn. Like-named read-outs stand apart in the source and are kept apart here.

How the values were obtained:
Human liver cathepsin D = biological target: T1, Human liver cathepsin D (Homo sapiens, UniProt P07339); assay: Cathepsin D inhibition, fluorometric assay (Tables 5 and 6); format: biochemical; conditions: for inhibition at 8.3 µg/mL (stock): Compound Stock Concentration 8.3 μg/ml; for ability to inhibit cathepsin D: compared to structurally similar compounds known in the art, in words; for inhibition at 4.15 µg/mL (stock): Compound Stock Concentration 4.15 μg/ml; for inhibition at 10 µg/mL (stock): Compound Stock Concentration 10.0 μg/ml
T1 construct: purchased Athens Research and Technology, Athens, Ga; host or cells: human liver
T1 sequence (P07339 169-412 limits assumed): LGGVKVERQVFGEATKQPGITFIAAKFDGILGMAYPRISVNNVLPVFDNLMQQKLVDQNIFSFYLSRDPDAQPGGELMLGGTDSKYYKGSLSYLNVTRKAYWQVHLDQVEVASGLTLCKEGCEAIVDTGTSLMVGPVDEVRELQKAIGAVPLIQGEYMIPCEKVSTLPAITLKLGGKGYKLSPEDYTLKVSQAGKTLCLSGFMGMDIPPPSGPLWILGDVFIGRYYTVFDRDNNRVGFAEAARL
T1 sequence (P07339 65-161 limits assumed): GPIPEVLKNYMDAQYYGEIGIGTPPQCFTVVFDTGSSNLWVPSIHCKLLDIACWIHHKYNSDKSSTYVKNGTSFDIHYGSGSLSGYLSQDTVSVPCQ
Description: Human liver cathepsin D (Athens Research and Technology, Athens, Ga.) was diluted in assay buffer, 200 mM NaOAc, pH 4.5, 150 mM NaCl to 500 ng/mL and then 100 μL of this cathepsin D solution was added to each well of a 96 well plate with the exception of control wells which received just 100 μL of assay buffer. […] Blank and enzyme control wells each received 5 μL of the DMSO vehicle.
After incubation at 37° C. for 30 minutes, cathepsin D activity was terminated by the addition of 100 μL per well of 400 mU/mL microsomal leucine aminopeptidase (EC 3.4.11.2, Sigma, St. Louis, Mo.) in 1M Tris-HCl, pH 8.0.
Following a two hour incubation at 37° C., to allow the aminopeptidase to release the fluorophore, 7-amido-4-methylcoumarin (AMC) from the products of cathepsin D cleavage, the plates were again analyzed in the fluorometer. In order to check for potential false positives, i.e., inhibitors of microsomal leucine aminopeptidase, residual aminopeptidase activity was monitored directly in each well by the addition of 20 μL/well of 2.5 mM Leu-pNA (Bachem Biosciences, Philadelphia, Pa.) in 10% DMSO.

blood glucose level = assay: Hypoglycemic activity in obese diabetic mice (Table 1); format: in vivo, male viable yellow obese-diabetic mice; conditions: for response vs control in vivo at 50 mg/kg: Mus musculus, ip
Description: The hypoglycemic activity of the compounds of the present invention was determined by testing the efficacy of the compounds in vivo in male viable yellow obese-diabetic mice. The test procedure is described in detail below.
Test formulations were prepared by dissolving the test compound in a saline solution containing 2% Emulphor (a polyoxyethylated vegetable oil surfactant from GAP Corp.) to provide the dose level desired. Each test formulation was administered to six viable yellow obese-diabetic mice intraperitoneally at the beginning of the experiment. Blood glucose levels were determined immediately before the first dose and at 2 and 4 hours thereafter using glucose oxidase. A mean was taken of the 6 values obtained before the first dose and at the 2 and 4 hour intervals. In Table 1, Column 1 provides the example number of the test compound, Column 2 provides the dose level of compound tested, and Columns 3 and 4 provide a measurement of the test animal's blood glucose level 2 and 4 hours after test compound administration, respectively, as a percentage of the test animal' s pre-administration blood glucose level.

[1] = 2 h, 50 mg/kg, intraperitoneal, 2 hrs, read-out: Percent of Initial Blood Glucose Level After 2 hrs.
[2] = 4 h, 50 mg/kg, intraperitoneal, 4 hrs, read-out: Percent of Initial Blood Glucose Level After 4 hrs.

## CCOc1cc(C=C2SC(=S)N(CC(=O)O)C2=O)cc(CSc2ccccc2)c1O [Example 74, 5-[[3-ethoxy-4-hydroxy-5-(methylthiophenyl)phenyl]methylene]-4-oxo-2-thioxo-3-thiazolidine acetic acid]
Human liver cathepsin D; 50% inhibition of cathepsin D
  IC50: 5.8 µM
Human liver cathepsin D
  inhibition at 8.3 µg/mL (stock): 95%
  ability to inhibit cathepsin D: surprising ability to inhibit cathepsin D levels

## CCCCCCCOc1ccc(C=C2SC(=S)N(N(C)C)C2=O)cc1 [Example 83, 5-[(4-heptoxyphenyl)methylene]-2-thioxo-3-dimethylamino-4-thiazolidinone]
Human liver cathepsin D
  inhibition at 4.15 µg/mL (stock): 47%

## CCOc1cc(C=C2SC(=S)N(N(C)C)C2=O)cc(CSc2ccccc2)c1O [Example 89]
Human liver cathepsin D; 50% inhibition of cathepsin D
  IC50: 9.2 µM
Human liver cathepsin D
  inhibition at 8.3 µg/mL (stock): 71%

## CCCCCCCOc1ccc(C=C2SC(=S)N(N)C2=O)cc1OC [Example 80, 5-[(3-methoxy-4-heptoxyphenyl)methylene]-2-thioxo-3-amino-4-thiazolidinone]
Human liver cathepsin D
  IC50: 47 µM
  inhibition at 8.3 µg/mL (stock): 33%

## CS(=O)(=O)Nc1cccc(C=C2SC(=S)N(CC(=O)O)C2=O)c1 [Example 86, 5-[(3-methanesulfonamidophenyl)methylene]-4-oxo-2-thioxo-3-thiazolidine acetic acid]
Human liver cathepsin D
  inhibition at 8.3 µg/mL (stock): 42%

## CN1C(=O)C(=Cc2ccc(O)c(C(C)(C)C)c2)SC1=S [Example 92, 5-[[3-(1,1-dimethylethyl)-4-hydroxyphenyl]methylene]-2-thioxo-3-methyl-4-thiazolidinone]
Human liver cathepsin D
  IC50: 3.9 µM
  inhibition at 4.15 µg/mL (stock): 74%
  ability to inhibit cathepsin D: surprising ability to inhibit cathepsin D levels

## O=C1NC(=S)SC1=Cc1cccc2ccccc12 [Example 75, 5-[(1-naphthyl)methylene]-2-thioxo-4-thiazolidinone]
Human liver cathepsin D
  inhibition at 10 µg/mL (stock): 43%

## CCCCCOc1ccc(C=C2SC(=S)N(CC(=O)O)C2=O)cc1OCCCCC [Example 91, 5-[(3,4-dipentoxyphenyl)methylene]-4-oxo-2-thioxo-3-thiazolidine acetic acid]
Human liver cathepsin D
  IC50: 9.7 µM
  inhibition at 4.15 µg/mL (stock): 72%
  ability to inhibit cathepsin D: surprising ability to inhibit cathepsin D levels

## CCOc1cc(C=C2SC(=S)N(C)C2=O)cc(CSc2ccccc2)c1O [Example 73]
Human liver cathepsin D; 50% inhibition of cathepsin D
  IC50: 9.9 µM
Human liver cathepsin D
  inhibition at 4.15 µg/mL (stock): 69%
  inhibition at 8.3 µg/mL (stock): 76%

## CN(C)c1ccc(C=C2SC(=S)NC2=O)cc1 [Example 82, 5-[[4-(dimethylamino)phenyl]methylene]-2-thioxo-4-thiazolidinone]
Human liver cathepsin D
  inhibition at 10 µg/mL (stock): 73.5%

## CCOc1cc(C=C2SC(=S)N(C3CCCCC3)C2=O)ccc1O [Example 84, 5-[(3-ethoxy-4-hydroxyphenyl)methylene]-2-thioxo-3-cyclohexyl-4-thiazolidinone]
Human liver cathepsin D
  inhibition at 4.15 µg/mL (stock): 51%

## CC(=C1SC(=S)NC1=O)c1ccc2ccccc2c1 [Example 76, 5-[(2-naphthyl)methylmethylene]-2-thioxo-4-thiazolidinone]
Human liver cathepsin D
  inhibition at 10 µg/mL (stock): 32%

## CCOc1cc(C=C2SC(=S)N(N(C)C)C2=O)ccc1O [Example 90, 5-[(3-ethoxy-4-hydroxyphenyl)methylene]-2-thioxo-3-dimethylamino-4-thiazolidinone]
Human liver cathepsin D
  IC50: 7.7 µM
  inhibition at 4.15 µg/mL (stock): 79%
  inhibition at 8.3 µg/mL (stock): 92%
  ability to inhibit cathepsin D: surprising ability to inhibit cathepsin D levels

## CCCCOc1ccc(C=C2SC(=S)NC2=O)cc1OC [Example 52, 5-[(3-methoxy-4-butoxyphenyl)methylene]-2-thioxo-4-thiazolidinone, sodium salt]
Blood glucose level; 4 h, read-out: Percent of Initial Blood Glucose Level After 4 hrs., 50 mg/kg, intraperitoneal, 4 hrs
  response vs control in vivo at 50 mg/kg: 61 ± 4%

## O=C1NC(=S)SC1=Cc1cccc(Cl)c1 [Example 23, 5-[(3-chlorophenyl)methylene]-2-thioxo-4-thiazolidinone]
Blood glucose level; [1]
  response vs control in vivo at 50 mg/kg: 74 ± 6%
Blood glucose level; [2]
  response vs control in vivo at 50 mg/kg: 90 ± 6%

## CCCCOc1ccc(C=C2SC(=S)N(N(C)C)C2=O)cc1OCCCC [Example 94, 5-[(3,4-dibutoxyphenyl)methylene]-2-thioxo-3-dimethylamino-4-thiazolidinone]
Human liver cathepsin D
  inhibition at 4.15 µg/mL (stock): 48%

## O=C1NC(=S)SC1=Cc1cccs1 [Example 14, 5-[(2-thienyl)methylene]-2-thioxo-4-thiazolidinone]
Blood glucose level; [1]
  response vs control in vivo at 50 mg/kg: 84 ± 7%
Blood glucose level; [2]
  response vs control in vivo at 50 mg/kg: 71 ± 8%

## CCCCOc1ccc(CC2SC(=S)NC2=O)cc1OC (stereo not shown) [Example 54, 5-[(3-methoxy-4-butoxyphenyl)methyl]-2-thioxo-4-thiazolidinone]
Blood glucose level; [1]
  response vs control in vivo at 50 mg/kg: 76 ± 7%
Blood glucose level; [2]
  response vs control in vivo at 50 mg/kg: 74 ± 6%

## CCCCCCCOc1ccc(C=C2SC(=S)N(N(C)C)C2=O)cc1OCCCCCCC [Example 93, 5-[(3,4-diheptoxyphenyl)methylene]-2-thioxo-3-dimethylamino-4-thiazolidinone]
Human liver cathepsin D
  IC50: 7.5 µM

## O=C1NC(=S)SC1=Cc1ccnc2ccccc12 [Example 3, 5-[(4-quinolinyl)methylene]-2-thioxo-4-thiazolidinone]
Blood glucose level; [1]
  response vs control in vivo at 50 mg/kg: 90 ± 10%
Blood glucose level; [2]
  response vs control in vivo at 50 mg/kg: 73 ± 3%

## COc1ccc(C=C2SC(=S)NC2=O)c(OC)c1 [Example 12, 5-[(2,4-dimethoxyphenyl)methylene]-2-thioxo-4-thiazolidinone]
Blood glucose level; [1]
  response vs control in vivo at 50 mg/kg: 90 ± 7%
Blood glucose level; [2]
  response vs control in vivo at 50 mg/kg: 69 ± 6%

## CN1C(=O)C(=Cc2cc(C(C)(C)C)c(O)c(C(C)(C)C)c2)SC1=S [Example 85, 5-[[3,5-bis(1,1-dimethylethyl)-4-hydroxyphenyl]methylene]-2-thioxo-3-methyl-4-thiazolidinone]
Human liver cathepsin D
  IC50: 14.3 µM

## O=C1NC(=S)SC1=Cc1ccc(F)cc1 [Example 13, 5-[(4-fluorophenyl)methylene]-2-thioxo-4-thiazolidinone]
Blood glucose level; [1]
  response vs control in vivo at 50 mg/kg: 94 ± 4%
Blood glucose level; [2]
  response vs control in vivo at 50 mg/kg: 88 ± 5%

## CCOc1cc(C=C2SC(=S)N(C)C2=O)ccc1O [Example 88, 5-[(3-ethoxy-4-hydroxyphenyl)methylene]-2-thioxo-3-methyl-4-thiazolidinone]
Human liver cathepsin D
  IC50: 11.2 µM
  inhibition at 4.15 µg/mL (stock): 67%
  inhibition at 8.3 µg/mL (stock): 82%
  ability to inhibit cathepsin D: surprising ability to inhibit cathepsin D levels

## CC(=C1SC(=S)NC1=O)c1cccc(Oc2ccccc2)c1 [Example 78, 5-[(3-phenoxyphenyl)methylmethylene]-2-thioxo-4-thiazolidinone]
Human liver cathepsin D
  IC50: 22.1 µM
  inhibition at 4.15 µg/mL (stock): 41%

## O=C1NC(=S)SC1=Cc1ccccc1O [Example 7, 5-[(2-hydroxyphenyl)methylene]-2-thioxo-4-thiazolidinone]
Blood glucose level; [1]
  response vs control in vivo at 50 mg/kg: 80 ± 4%
Blood glucose level; [2]
  response vs control in vivo at 50 mg/kg: 91 ± 7%

## O=C1NC(=S)SC1=Cc1c[nH]c2ccccc12 [Example 39, 5-[(1H-indol-3-yl)methylene]-2-thioxo-4-thiazolidinone]
Blood glucose level; [1]
  response vs control in vivo at 50 mg/kg: 83 ± 4%
Blood glucose level; [2]
  response vs control in vivo at 50 mg/kg: 76 ± 4%

## O=C1NC(=S)SC1=Cc1ccc(C(=O)O)cc1 [Example 37, 4-[(2-thioxo-4-thiazolidinone)methylene]benzoic acid]
Blood glucose level; [1]
  response vs control in vivo at 50 mg/kg: 89 ± 4%
Blood glucose level; [2]
  response vs control in vivo at 50 mg/kg: 80 ± 4%

## CC(=C1SC(=S)NC1=O)c1cccc(O)c1 [Example 44, 5-[(3-hydroxyphenyl)methylmethylene]-2-thioxo-4-thiazolidinone]
Blood glucose level; 50 mg/kg, intraperitoneal, 2 hrs
  Percent of Initial Blood Glucose Level After 2 hrs.: 98 ± 4%
Blood glucose level; 50 mg/kg, intraperitoneal, 4 hrs
  Percent of Initial Blood Glucose Level After 4 hrs.: 88 ± 5%

## O=C1NC(=S)SC1=Cc1ccc([N+](=O)[O-])c(O)c1 [Example 43, 5-[(3-hydroxy-4-nitrophenyl)methylene]-2-thioxo-4-thiazolidinone]
Blood glucose level; [1]
  response vs control in vivo at 50 mg/kg: 92 ± 7%
Blood glucose level; [2]
  response vs control in vivo at 50 mg/kg: 88 ± 4%

## CCOc1ccc(C=C2SC(=S)NC2=O)cc1O [Example 46, 5-[(3-hydroxy-4-ethoxyphenyl)methylene]-2-thioxo-4-thiazolidinone]
Blood glucose level; [1]
  response vs control in vivo at 50 mg/kg: 79 ± 4%
Blood glucose level; [2]
  response vs control in vivo at 50 mg/kg: 77 ± 5%

## Cc1cccc(C=C2SC(=S)NC2=O)c1 [Example 33, 5-[(3-methylphenyl)methylene]-2-thioxo-4-thiazolidinone]
Blood glucose level; [1]
  response vs control in vivo at 50 mg/kg: 91 ± 6%
Blood glucose level; [2]
  response vs control in vivo at 50 mg/kg: 86 ± 7%

## COc1cc(C=C2SC(=S)NC2=O)ccc1O [Example 20, 5-[(3-methoxy-4-hydroxyphenyl)methylene]-2-thioxo-4-thiazolidinone]
Blood glucose level; [1]
  response vs control in vivo at 50 mg/kg: 76 ± 3%
Blood glucose level; [2]
  response vs control in vivo at 50 mg/kg: 70 ± 5%
